Like-named read-outs stand apart in the source and are kept apart here.
Legend:
iPSC^USP48MV organoids = test: ACTH secretion ELISA, iPSCUSP48 organoids; type: cell-based, human; settings: text: iPSCUSP48MI; FIG. 7G: iPSCUSP48MV; 500 nM, 48 h
Procedure: (§1) Sonic Hedgehog (SHH) was withdrawn from the organoid growth media 16 hours prior to treatment. The experimental treatment groups included: vehicle (Veh), mifepristone (500 nM, Selleckchem S2606), GANT61 (5 μM, Stemcell Technologies 73692), ketoconazole (Keto, 10 μM, Selleckchem S1353), pasireotide (Pas, 100 nM, Target Mol TP2207-SB001), octreotide (Oct, 100 nM, Selleckchem P1017), mifepristone plus GANT61, mifepristone plus Keto, mifepristone plus Pas, relacorilant (500 nM, Corcept Therapeutics CORT125134), relacorilant plus Pas, relacorilant plus Oct, or dexamethasone (Dexa, 100 nM, SIGMA S4902). In the combination treatments, cultures were pretreated with the GANT61, Keto, Pas or Oct for 2 hours prior to treatment with mifepristone or Rela. PitNET tissue derived organoids hPITO36, hPITO37, hPITO38, hPITO39, and hPITO40 were treated with the following experimental conditions: Vehicle (1), pasireotide (2), relacorilant (3), relacorilant & pasireotide (4), mifepristone (5), mifepristone & pasireotide (6). The IC50 values used for each hPITO line for each drug were determined based on dose responses (FIG. 12). All organoid cultures were treated for 48 hours prior to analysis.
(§2) Organoid conditioned media was collected and ACTH secretion using an ELISA according to the manufacturer's protocol (Novus Biologicals Human ACTH ELISA Kit NBP2-66401). The optical density was measured at a wavelength of 450 nm, and ACTH concentration (pg/mL) was interpolated using a standard curve with a 4-parameter logistic regression analysis using GraphPad Prism (v9.3.1).

[1] = test system: glucocorticoid receptor (GR); settings: cited from earlier work
iPSC^ctrl organoids = test: ACTH secretion ELISA, iPSCctrl organoids; type: cell-based, human; settings: 500 nM, 48 h, FIG. 6G
Procedure: as §1, §2

androgen receptor = settings: cited from earlier work
[2] = test system: pancreatic cancer cell lines; settings: in vitro; cited from earlier work
[3] = test system: ovarian cancer cell lines; settings: in vitro; cited from earlier work
estrogen receptor = settings: cited from earlier work

| SMILES | magnitude of ACTH secretion, mifepristone vs relacorilant (iPSC^USP48MV organoids) | binding to the glucocorticoid receptor [1] | binding to the glucocorticoid receptor ([1]; listed as Mifepristone) | magnitude of ACTH secretion, mifepristone vs relacorilant (iPSC^ctrl organoids) | binding to the androgen receptor (androgen receptor) | apoptosis [2] | apoptosis [3] | binding to the estrogen receptor (estrogen receptor) |
| --- | --- | --- | --- | --- | --- | --- | --- | --- |
| CC#C[C@]1(O)CC[C@H]2[C@@H]3CCC4=CC(=O)CCC4=C3[C@@H](c3ccc(N(C)C)cc3)C[C@@]21C [mifepristone, 11β-(4-dimethylaminophenyl)-17ß-hydroxy-17α-(1-propynyl)-estra-4,9-dien-3-one] | significantly greater than the effect of relacorilant | competes with cortisol binding at the GR | typically with high affinity | significantly greater than the effect of relacorilant | – | – | – | – |
| Cn1cc(S(=O)(=O)N2CCC3=Cc4c(cnn4-c4ccc(F)cc4)C[C@]3(C(=O)c3cc(C(F)(F)F)ccn3)C2)cn1 [relacorilant, (R)-(1-(4-fluorophenyl)-6-((1-methyl-1H-pyrazol-4-yl)sulfonyl)-4,4a,5,6,7,8-hexahydro-1H-pyrazolo[3,4-g]isoquinolin-4a-yl) (4-(trifluoromethyl)pyridin-2-yl) methanone] | – | – | – | – | no detectable binding | induces apoptosis | induces apoptosis | no detectable binding |

Reference: US20260325504A1, “Genetically Engineered Human Pituitary Corticotroph Tumor Organoids Exhibit Divergent Responses to Selective Glucocorticoid Receptor Modulators” (Corcept Therapeutics Incorporated, priority 2022, published 2026)
